Drawing on PubChem BioAssay (NCI), this text covers TGI for 26 molecules.

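How tested: cells in 96-well plates exposed to compound for 48 hours at five concentrations. TGI marks complete inhibition of growth.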

Experiment in all cases: NCI-60 cell line screen, 48 h
In experiment [1] the test system is NCI-H460 lung.
The test system of experiment [2] is OVCAR-8 ovarian.
Experiment [3] deals with BT-549 breast.
The subject of experiment [4] is SK-OV-3 ovarian.
The subject of experiment [5] is RXF 393 renal.
Experiment [6] relates to M14 melanoma.
Experiment [7] has as its system MDA-N.
The subject of experiment [8] is OVCAR-5 ovarian.
For experiment [9], the system named is NCI-H226 lung.
The test system of experiment [10] is HT29 colon.

On to `CC(OP(=O)(O)O)C(N)C(=O)O` (stereo not given), for which the TGI in experiment [1], in experiment [2], in experiment [3], in experiment [4], in experiment [5] and in experiment [6] was over 100 µM in each case. Also, the TGI in experiment [7], in [8], in experiment [9] and in experiment [10] was over 100 µM each time.
With `O=c1cc(-c2ccccc2)oc2c1ccc1[nH]c3ccccc3c(=O)c12`, the TGI was 36.9 µM in experiment [1]; over 100 µM in [2]; over 100 µM in experiment [3]; over 100 µM in experiment [4]; over 100 µM in [5]; over 100 µM in experiment [6]. Moreover, the TGI in [7], in experiment [8], in experiment [9] and in experiment [10] was over 100 µM each time.
`Clc1ccc(-c2nn3c(COc4cccc(OCc5nnc6sc(-c7ccc(Cl)cc7)nn56)c4)nnc3s2)cc1`: the TGI in [1] was over 100 µM; in [2], over 100 µM; in [3], over 100 µM; in experiment [4] it was over 100 µM; in experiment [5] it was 77.6 µM; in experiment [6], 75.9 µM. Moreover, the TGI was 36.4 µM in experiment [7], 74.4 µM in [8], over 100 µM in [9] and 60.2 µM in [10].
`O=[N+]([O-])c1ccc(N2N=C(c3c(O)ccc4ccccc34)CC2c2ccc(Cl)cc2)c([N+](=O)[O-])c1` (stereo not given): the TGI in experiment [1] is over 100 µM; in experiment [2], over 100 µM; in experiment [3], over 100 µM; in [4], over 100 µM; in [5], 73.5 µM; in experiment [6] it was 71 µM. In addition, the TGI is over 100 µM in [7], over 100 µM in [8], over 100 µM in experiment [9] and 67 µM in experiment [10].
Regarding `CSc1nnc(SCc2nn3c(=O)cc(C)nc3s2)s1`, the TGI in experiment [1], in experiment [2], in [3], in [4], in experiment [5] and in experiment [6] was over 100 µM each time. For the same molecule, the TGI in [7], in [8], in experiment [9] and in [10] was over 100 µM throughout.
On to `O=C1C=CC2(O[C@H](C3CCCCC3)[C@@H](C3CCCCC3)O2)C(SC(=O)c2ccccc2)C1` (stereo not given in full), for which the TGI amounted to 17.6 µM in experiment [1]; 13.9 µM in [2]; 8.28 µM in experiment [3]; 33.5 µM in experiment [4]; 2.49 µM in experiment [5]; 7.9 µM in [6]. For the same molecule, the TGI in [7] was determined as 7.2 µM; in experiment [8], 6.32 µM; in [9] it was 1.62 µM; in experiment [10], 3.85 µM.
Regarding `Cc1cc(N2CCCCC2)nc2ccc(Cc3ccc4nc(N5CCCCC5)cc(C)c4c3)cc12`, the TGI in experiment [1], in [2], in experiment [3], in [4], in experiment [5] and in experiment [6] was over 100 µM throughout. Also, the TGI in experiment [7], in experiment [8], in [9] and in experiment [10] was over 100 µM each time.
Take `CC(C)[C@H](C)/C=C/[C@@H](C)C1CC[C@H]2[C@@]34C=C[C@]5(C[C@@H](O)CC[C@]5(C)[C@H]3CC[C@]12C)OO4` (stereo not given in full): the TGI is over 100 µM in [1]; 66.4 µM in experiment [2]; 92.7 µM in experiment [3]; over 100 µM in [4]; over 100 µM in [5]; over 100 µM in [6]. Further, the TGI in experiment [7] is over 100 µM; in [8], over 100 µM; in experiment [9], 49.9 µM; in [10], 53.7 µM.
`CC(C)(C)c1cc(OCc2nnc3sc(Cc4ccccc4)nn23)c(Cl)cc1OCc1nnc2sc(Cc3ccccc3)nn12`: the TGI in experiment [1] is 42.5 µM; in experiment [2], 73.6 µM; in experiment [3], 96.9 µM; in experiment [4] it was over 100 µM; in experiment [5], 38.8 µM; in experiment [6], 88 µM. For the same molecule, the TGI was over 100 µM in [7], over 100 µM in experiment [8], over 100 µM in [9] and 57.8 µM in experiment [10].
As to `Cc1nc2ccc(Br)cc2c(=O)n1-c1ccc(N)cc1`, the TGI in experiment [1] is over 100 µM; in [2], over 100 µM; in experiment [3], over 100 µM; in [4], over 100 µM; in experiment [5], 81.8 µM; in [6], over 100 µM. The TGI in experiment [7], in [8], in experiment [9] and in experiment [10] was over 100 µM each time.
Take `COc1cc(S(=O)(=O)Nc2ccc(-c3csc(N4C(=O)C(Cl)C4c4ccccc4O)n3)cc2)ccc1Cl` (stereo not given): the TGI was over 100 µM in experiment [1]; over 100 µM in experiment [2]; over 100 µM in experiment [3]; over 100 µM in [4]; 52.6 µM in experiment [5]; over 100 µM in experiment [6]. Also, the TGI in experiment [7], in experiment [8], in experiment [9] and in experiment [10] was over 100 µM in each case.
On to `O=C1C=CC(=O)c2c1ccc1c3ccccc3n(Cc3ccccc3)c21`, for which the TGI in experiment [1] is over 100 µM; in experiment [2], over 100 µM; in experiment [3], 43.9 µM; in [4], over 100 µM; in experiment [5] it was 32.8 µM; in experiment [6], 42 µM. Also, the TGI is 54.4 µM in experiment [7], 72.4 µM in experiment [8], 24.7 µM in [9] and 57 µM in experiment [10].
Turning to `O=c1[nH]cc(N=Cc2cc(Cl)ccc2O)c(=O)[nH]1`, the TGI in [1] is over 100 µM; in [2] it was 76.9 µM; in [3], 70 µM; in [4] it was 59.4 µM; in experiment [5], over 100 µM; in [6], 48.9 µM. For the same molecule, the TGI in [7] is over 100 µM; in [8], over 100 µM; in experiment [9], 98 µM; in experiment [10], over 100 µM.
For the molecule `O=c1c2ccccc2nc(N/N=C/c2ccc([N+](=O)[O-])cc2)n1-c1ccccc1`, the TGI in [1] was over 100 µM; in experiment [2], over 100 µM; in experiment [3], 46 µM; in experiment [4], 64.8 µM; in experiment [5], 32.7 µM; in experiment [6] it was over 100 µM. In addition, the TGI in experiment [7], in [8], in [9] and in experiment [10] was over 100 µM throughout.
Regarding `CC(=O)OCC1OC(SC2=NC(=O)CS2)C(OC(C)=O)C(OC(C)=O)C1OC(C)=O` (stereo not given), the TGI in [1], in [2], in experiment [3], in experiment [4], in experiment [5] and in experiment [6] was over 100 µM in each case. The TGI in experiment [7], in experiment [8], in experiment [9] and in experiment [10] was over 100 µM throughout.
On to `Cc1cc(C)nc(NS(=O)(=O)c2ccc(NNc3c4ccccc4nc4c(C(=O)Nc5ccc(S(=O)(=O)Nc6cc(C)on6)cc5)cccc34)cc2)n1`, for which the TGI in experiment [1], in experiment [2], in experiment [3], in [4], in experiment [5] and in experiment [6] was over 100 µM throughout. Further, the TGI in [7] was over 100 µM; in experiment [8] it was over 100 µM; in experiment [9], 63.8 µM; in experiment [10], 49.1 µM.
`CC(=O)CC(=O)N1CCSC1=S`: the TGI in experiment [1], in [2], in [3], in experiment [4], in [5] and in experiment [6] was over 10 µM throughout. In addition, the TGI in experiment [7], in experiment [8], in [9] and in experiment [10] was over 10 µM each time.
`CCCC1=C(OC)C(=O)c2c(C)cc(Cl)nc2C1=O`: the TGI in experiment [1] came to 26.6 µM; in [2] it was 23.7 µM; in [3] it was 26.5 µM; in experiment [4], 31 µM; in experiment [5] it was 20.2 µM; in [6] it was 18.9 µM. Also, the TGI in experiment [7] turned out to be 3.33 µM; in experiment [8], 29.1 µM; in [9] it was 33.2 µM; in experiment [10], 8.45 µM.
On to `O=C1C=CC(=O)c2c(O)c(N3CCOCC3)c(Cl)c(O)c21`, for which the TGI amounted to 2.71 µM in experiment [1]; 1 µM in experiment [2]; 0.329 µM in [3]; 6.22 µM in experiment [4]; 0.464 µM in experiment [5]; 0.358 µM in experiment [6]. The TGI worked out at 0.396 µM in [7], 1.76 µM in experiment [8], 3.34 µM in experiment [9] and 0.586 µM in [10].
Take `c1ccc2c[n+](CCCC[n+]3ccc4ccccc4c3)ccc2c1`: the TGI in [1], in [2], in experiment [3], in [4], in experiment [5] and in [6] was over 100 µM each time. Besides, the TGI in [7], in experiment [8], in experiment [9] and in [10] was over 100 µM in each case.
On to `COc1ccc(OC)c2c(C)ccnc12`, for which the TGI in [1] is over 100 µM; in experiment [2] it was over 79.2 µM; in [3], over 100 µM; in experiment [4] it was over 100 µM; in experiment [5], over 100 µM; in experiment [6] it was 34.3 µM. Also, the TGI in [7] is over 100 µM; in experiment [8] it was over 100 µM; in [9], over 93.4 µM; in experiment [10], over 100 µM.
`COC(=O)CCC(=O)NC1=C(Nc2ccccc2)C(=O)c2ccccc2C1=O`: the TGI in experiment [1] was 31.9 µM; in experiment [2], 47.4 µM; in experiment [3] it was 23.4 µM; in [4], 30.9 µM; in experiment [5] it was 21.4 µM; in [6], 7.27 µM. Also, the TGI in experiment [7] came to 3.59 µM; in [8], 19.7 µM; in experiment [9], 28.6 µM; in [10], 35.7 µM.
`COC(=O)[C@@H](NS(=O)(=O)CC12CCC(CC1)C2(C)C)C(C)(C)C`: the TGI in experiment [1], in [2], in [3], in experiment [4], in experiment [5] and in [6] was over 100 µM throughout. Also, the TGI in experiment [7], in experiment [8], in [9] and in experiment [10] was over 100 µM each time.
For `CCOc1ccc2nc3nc(=O)[nH]c(C)c3c(NC(C)(CO)CO)c2c1`, the TGI in experiment [1], in [2], in [3], in [4], in experiment [5] and in experiment [6] was over 100 µM each time. Besides, the TGI in experiment [7], in experiment [8], in experiment [9] and in experiment [10] was over 100 µM in each case.
For `COc1cccc(NC(=O)CC(=O)n2nc(-c3ccccc3)c(N=Nc3ccc(Cl)cc3)c2-c2ccccc2)c1`, the TGI was over 92.5 µM in experiment [1]; 68.3 µM in [2]; 58.6 µM in [3]; over 79.9 µM in experiment [4]; 75.9 µM in experiment [5]; 42.3 µM in experiment [6]. In addition, the TGI in experiment [7] was over 100 µM; in experiment [8], over 100 µM; in [9], 73.8 µM; in experiment [10], 56.7 µM.
Turning to `Oc1cccc2c(Br)ccnc12`, the TGI in experiment [1] is 42 µM; in [2], over 36.2 µM; in experiment [3], over 45.7 µM; in experiment [4], 66.8 µM; in [5], 32.4 µM; in [6], 16.3 µM. In addition, the TGI in [7] was over 50.4 µM; in experiment [8], 20 µM; in [9], 29.8 µM; in [10], 19.4 µM.
